Assay results taken from patent US20220395472A1 (Dermavant Sciences GmbH, priority 2021, published 2022).

Legend:
[1] = system: adults with plaque psoriasis; test: Long-term extension study (PSOARING 3): PASI score, PASI75, PASI90; assay type: in vivo, human
From the text: The PASI scoring system is a widely used, standard, clinical tool for assessing the severity of psoriasis that takes into account the overall severity of erythema (redness), induration (plaque thickness), scale, and the extent of % BSA affected with psoriasis. The 3 clinical signs are each graded on a 5 point scale (0 to 4) and the % BSA affected is scored on a 7 point scale (0 to 6) for each of the 4 specified body regions (head, upper extremities, trunk, and lower extremities). Individual scores are multiplied by a weighted factor for each body region; the sum of these scores gives the overall PASI score. Higher scores indicate more severe disease. PASI is a static assessment made without reference to previous scores. Details on PASI calculation can be found in Appendix 2 of the protocol.

[2] = system: adults with plaque psoriasis; test: Long-term extension study (PSOARING 3): Dermatology Life Quality Index (DLQI); assay type: in vivo, human; set-up: key to DLQI Total Score, Observed, Mean / DLQI Total Score, Observed, Median: DLQI total score 0–30; higher = greater quality-of-life impairment
From the text: Subjects completed the DLQI questionnaire. The DLQI is a simple, validated, dermatology specific, 10 question questionnaire to assess the impact of the disease on a subject's quality of life. The DLQI is an important outcome measure in dermatology clinical trials and is the most frequently used instrument in randomized, controlled dermatology trials. The DLQI can be analyzed as a total score (where a higher score indicates greater impairment in quality of life) and can also be scored for the following dimensions: Symptoms and Feelings (Items 1 and 2), Daily Activities (Items 3 and 4), Leisure (Items 5 and 6), Work and School (Item 7), Personal Relationships (Items 8 and 9), and Treatment (Item 10).
The DLQI is a 10 item subject reported outcome, 6 domain measure that assessed the extent to which the skin condition had affected the subject's quality of life over the past week. The total score (0 to 30) is the sum of 10 questions with each ranging from 0 to 3. The DLQI was assessed at 4 week intervals. If one question was left unanswered, this was scored as 0 and the scores were summed and expressed as usual out of a maximum of 30. If ≥2 questions were left unanswered, the total DLQI score was considered missing.
DLQI total score and sub scores on DLQI domains and their changes from baseline as well as percent change from baseline values were summarized descriptively. Additional details of the analysis of the DLQI are provided in the SAP.

[3] = Week 16, LOCF, Tapinarof (Pivotal) group
[4] = Week 16, LOCF, Vehicle (Pivotal) group
[5] = Week 16, OC, Tapinarof (Pivotal) group
[6] = Week 16, OC, Vehicle (Pivotal) group
[7] = Week 16, Observed Cases, Overall
[8] = Week 16, Observed Cases, Tapinarof (Pivotal) group
[9] = Week 16, Observed Cases, Vehicle (Pivotal) group
[10] = Week 40, LOCF, Tapinarof (Pivotal) group
[11] = Week 40, LOCF, Vehicle (Pivotal) group
[12] = Week 40, OC, Tapinarof (Pivotal) group
[13] = Week 40, OC, Vehicle (Pivotal) group
[14] = Week 40, Observed Cases, Tapinarof (Pivotal) group
[15] = Week 40, Observed Cases, Vehicle (Pivotal) group
[16] = Week 16 OC, Tapinarof (Pivotal)
[17] = Week 40 OC, Tapinarof (Pivotal)

SMILES: CC(C)c1c(O)cc(/C=C/c2ccccc2)cc1O [Tapinarof, 3,5-Dihydroxy-4-isopropyl-trans-stilbene]
- PASI75 Responder ([1]; Week 16, LOCF, Overall, listed as tapinarof): 21.3%
- PASI75 Non-Responder [1, 3]: 413/491 (84.1) %
- PASI75 Responder [1, 3]: 78/491 (15.9) %
- Subjects with reduction of ≥90% from Baseline in PASI (PASI90) [1, 3]: 13.0%
- mean (SD) PASI score [1, 3]: 2.74 (3.324)
- PASI75 Responder ([1]; Week 16, LOCF, Tapinarof (Pivotal) group, listed as tapinarof): 15.9%
- PASI75 Non-Responder [1, 4]: 170/250 (68.0) %
- PASI75 Responder [1, 4]: 80/250 (32.0) %
- Subjects with reduction of ≥90% from Baseline in PASI (PASI90) [1, 4]: 15.2%
- mean (SD) PASI score [1, 4]: 3.47 (3.794)
- PASI75 Responder ([1]; Week 16, LOCF, Vehicle (Pivotal) group, listed as tapinarof): 32.0%
- Subjects with reduction of ≥90% from Baseline in PASI (PASI90) [1, 5]: 13.6%
- mean (SD) PASI score [1, 5]: 2.38 (2.652)
- Subjects with reduction of ≥90% from Baseline in PASI (PASI90) [1, 6]: 15.9%
- mean (SD) PASI score [1, 6]: 2.95 (3.020)
- PASI75 Non-Responder [1, 7]: 478/619 (77.2) %
- PASI75 Responder [1, 7]: 141/619 (22.8) %
- PASI75 Responder ([1]; Week 16, Observed Cases, Overall, listed as tapinarof): 22.8%
- PASI75 Non-Responder [1, 8]: 342/412 (83.0) %
- PASI75 Responder [1, 8]: 70/412 (17.0) %
- PASI75 Responder ([1]; Week 16, Observed Cases, Tapinarof (Pivotal) group, listed as tapinarof): 17.0%
- PASI75 Non-Responder [1, 9]: 136/207 (65.7) %
- PASI75 Responder [1, 9]: 71/207 (34.3) %
- PASI75 Responder ([1]; Week 16, Observed Cases, Vehicle (Pivotal) group, listed as tapinarof): 34.3%
- PASI75 Non-Responder ([1]; Week 16 LOCF, Overall): 583/741 (78.7) %
- PASI75 Responder ([1]; Week 16 LOCF, Overall): 158/741 (21.3) %
- Subjects with reduction of ≥90% from Baseline in PASI (PASI90) ([1]; Week 16 LOCF, Overall): 13.8%
- mean (SD) PASI score ([1]; Week 16 LOCF, Overall): 2.99 (3.504)
- Subjects with reduction of ≥90% from Baseline in PASI (PASI90) ([1]; Week 16 OC, Overall): 14.4%
- mean (SD) PASI score ([1]; Week 16 OC, Overall): 2.57 (2.791)
- PASI75 Responder ([1]; Week 40, LOCF, Overall, listed as tapinarof): 25.3%
- PASI75 Non-Responder [1, 10]: 409/492 (83.1) %
- Subjects with reduction of ≥90% from Baseline in PASI (PASI90) [1, 10]: 11.2%
- mean (SD) PASI score [1, 10]: 2.80 (3.443)
- PASI75 Responder ([1]; Week 40, LOCF, Tapinarof (Pivotal) group, listed as tapinarof): 16.9%
- PASI75 Non-Responder [1, 11]: 146/251 (58.2) %
- PASI75 Responder [1, 11]: 105/251 (41.8) %
- Subjects with reduction of ≥90% from Baseline in PASI (PASI90) [1, 11]: 20.7%
- mean (SD) PASI score [1, 11]: 3.28 (3.937)
- PASI75 Responder ([1]; Week 40, LOCF, Vehicle (Pivotal) group, listed as tapinarof): 41.8%
- Subjects with reduction of ≥90% from Baseline in PASI (PASI90) [1, 12]: 13.1%
- mean (SD) PASI score [1, 12]: 2.38 (2.672)
- Subjects with reduction of ≥90% from Baseline in PASI (PASI90) [1, 13]: 27.4%
- mean (SD) PASI score [1, 13]: 2.31 (3.008)
- PASI75 Responder ([1]; Week 40, Observed Cases, Overall): 30.9%
- PASI75 Non-Responder [1, 14]: 186/236 (78.8) %
- PASI75 Responder [1, 14]: 50/236 (21.2) %
- PASI75 Responder ([1]; Week 40, Observed Cases, Tapinarof (Pivotal) group, listed as tapinarof): 21.2%
- PASI75 Non-Responder [1, 15]: 55/113 (48.7) %
- PASI75 Responder [1, 15]: 58/113 (51.3) %
- PASI75 Responder ([1]; Week 40, Observed Cases, Vehicle (Pivotal) group, listed as tapinarof): 51.3%
- PASI75 Non-Responder ([1]; Week 40 LOCF, Overall): 555/743 (74.7) %
- PASI75 Responder ([1]; Week 40 LOCF, Overall): 188/743 (25.3) %
- Subjects with reduction of ≥90% from Baseline in PASI (PASI90) ([1]; Week 40 LOCF, Overall): 14.4%
- mean (SD) PASI score ([1]; Week 40 LOCF, Overall): 2.97 (3.622)
- Subjects with reduction of ≥90% from Baseline in PASI (PASI90) ([1]; Week 40 OC, Overall): 17.8%
- mean (SD) PASI score ([1]; Week 40 OC, Overall): 2.36 (2.781)
- DLQI Total Score, Observed, Mean ([2]; Baseline, Overall): 4.3
- DLQI Total Score, Observed, Median ([2]; Baseline, Overall): 2.0
- DLQI Total Score, Observed, Mean ([2]; Baseline, Tapinarof (Pivotal)): 3.3
- DLQI Total Score, Observed, Median ([2]; Baseline, Tapinarof (Pivotal)): 2.0
- mean (SD) DLQI total score [2, 5]: 2.0 (3.23)
- mean (SD) DLQI total score [2, 6]: 3.0 (5.19)
- DLQI Total Score, CFBL, Mean ([2]; Week 16 OC, Overall): −1.7
- DLQI Total Score, CFBL, Median ([2]; Week 16 OC, Overall): −1.0
- DLQI Total Score, Observed, Mean ([2]; Week 16 OC, Overall): 2.3
- DLQI Total Score, Observed, Median ([2]; Week 16 OC, Overall): 1.0
- DLQI Total Score, Percent CFBL, Mean ([2]; Week 16 OC, Overall): −30.7%
- DLQI Total Score, Percent CFBL, Median ([2]; Week 16 OC, Overall): −60.0%
- mean (SD) DLQI total score ([2]; Week 16 OC, Overall): 2.3 (4.02)
- DLQI Total Score, CFBL, Mean [2, 16]: −1.0
- DLQI Total Score, CFBL, Median [2, 16]: 0.0
- DLQI Total Score, Observed, Mean [2, 16]: 2.0
- DLQI Total Score, Observed, Median [2, 16]: 1.0
- DLQI Total Score, Percent CFBL, Mean [2, 16]: −21.3%
- DLQI Total Score, Percent CFBL, Median [2, 16]: −50.0%
- DLQI Total Score, CFBL, Mean ([2]; Week 16 OC, Vehicle (Pivotal)): −3.1
- DLQI Total Score, CFBL, Median ([2]; Week 16 OC, Vehicle (Pivotal)): −3.0
- DLQI Total Score, Observed, Mean ([2]; Week 16 OC, Vehicle (Pivotal)): 3.0
- DLQI Total Score, Observed, Median ([2]; Week 16 OC, Vehicle (Pivotal)): 1.0
- DLQI Total Score, Percent CFBL, Mean ([2]; Week 16 OC, Vehicle (Pivotal)): −45.9%
- DLQI Total Score, Percent CFBL, Median ([2]; Week 16 OC, Vehicle (Pivotal)): −73.0%
- mean (SD) DLQI total score [2, 12]: 1.6 (2.36)
- mean (SD) DLQI total score [2, 13]: 2.0 (4.23)
- DLQI Total Score, CFBL, Mean ([2]; Week 40 OC, Overall): −2.0
- DLQI Total Score, CFBL, Median ([2]; Week 40 OC, Overall): −1.0
- DLQI Total Score, Observed, Mean ([2]; Week 40 OC, Overall): 1.7
- DLQI Total Score, Observed, Median ([2]; Week 40 OC, Overall): 1.0
- DLQI Total Score, Percent CFBL, Mean ([2]; Week 40 OC, Overall): −41.6%
- DLQI Total Score, Percent CFBL, Median ([2]; Week 40 OC, Overall): −72.1%
- DLQI Total Score, CFBL, Mean [2, 17]: −1.1
- DLQI Total Score, CFBL, Median [2, 17]: 0.0
- DLQI Total Score, Observed, Mean [2, 17]: 1.6
- DLQI Total Score, Observed, Median [2, 17]: 1.0
- DLQI Total Score, Percent CFBL, Mean [2, 17]: −25.0%
- DLQI Total Score, Percent CFBL, Median [2, 17]: −61.3%
- DLQI Total Score, CFBL, Mean ([2]; Week 40 OC, Vehicle (Pivotal)): −3.9
- DLQI Total Score, CFBL, Median ([2]; Week 40 OC, Vehicle (Pivotal)): −3.0
- DLQI Total Score, Observed, Mean ([2]; Week 40 OC, Vehicle (Pivotal)): 2.0
- DLQI Total Score, Observed, Median ([2]; Week 40 OC, Vehicle (Pivotal)): 0.0
- DLQI Total Score, Percent CFBL, Mean ([2]; Week 40 OC, Vehicle (Pivotal)): −69.2%
- DLQI Total Score, Percent CFBL, Median ([2]; Week 40 OC, Vehicle (Pivotal)): −88.9%
